Values quoted from earlier work as cited in paper PMC4358366, “Identification of ‘erasers’ for lysine crotonylated histone marks using a chemical proteomics approach” (eLife, 2014).
“Also recorded” adds a separate entry of the source. Where no end group is shown, it is not given here. The star is where a group is joined. Crotonyl(E) = C/C=C/C(=O)*

Legend:
Conditions in all cases: H3K9Cr peptide, residues 5–13; [32P]-NAD TLC; ref Feldman et al., 2013; cited from earlier work
Sirt1 = system: Sirt1
From the text: (§1) Lysine crotonylation (Kcr) is a newly discovered histone PTM that is specifically enriched at active gene promoters and potential enhancers in mammalian cell genomes ([Tan et al., 2011]). […] However, further mechanistic and functional studies of histone Kcr have been limited by a lack of knowledge of the enzymes that catalyze the addition or removal of Kcr in cells. In a systematic screening of the activities of the ... || Siruins were initially recognized as NAD-dependent deacetylases ([Imai et al., 2000]; [Landry et al., 2000]; [Sauve et al., 2006]). […] In this study ...

Sirt2 = system: Sirt2
From the text: as §1

Sirt3 = system: Sirt3
From the text: Siruins were initially recognized as NAD-dependent deacetylases ([Imai et al., 2000]; [Landry et al., 2000]; [Sauve et al., 2006]). […] In this study ...

## histone H3K9Cr peptide: H3K9Cr peptide of Denu's study, residues 5–13 of histone H3 (QTARK(Crotonyl(E))STGG; UniProt P68431 6-14, looked up, fragment)
Sirt1
  decrotonylase activity of Sirt1 (literature): exhibited decrotonylase activity; also recorded: can catalyze the removal of a crotonyl group
Sirt2
  decrotonylase activity of Sirt2 (literature): exhibited decrotonylase activity; also recorded: can catalyze the removal of a crotonyl group
Sirt3
  decrotonylase activity of Sirt3 (literature): totally inactive
